Laboratory results taken from the NIST ThermoML archive (doi:10.1016/j.jct.2008.07.010).
± gives the expanded uncertainty stated by the source.

Test: xn = mol fraction of the nth substance listed
Conditions: 101 kPa, Liquid; for viscosity: Capillary tube (Ostwald / Ubbelohde) method; for speed of sound: Sing-around technique in a fixed-path interferometer; for mass density: Vibrating tube method

CCCCCCCCCCCCCCCC [hexadecane] + CC(C)O
Conditions | mass density, 298.15 K [kg/m3] | mass density, 303.15 K [kg/m3] | mass density, 308.15 K [kg/m3] | speed of sound, 298.15 K [m/s] | speed of sound, 303.15 K [m/s] | speed of sound, 308.15 K [m/s] | viscosity, 298.15 K [mPa·s] | viscosity, 303.15 K [mPa·s] | viscosity, 308.15 K [mPa·s]
x2 = 0 | 770.456 ± 0.24 | 766.981 ± 0.24 | 763.52 ± 0.24 | 1338.6 ± 1.3 | 1320 ± 1.3 | 1301.7 ± 1.3 | 3.041 ± 0.026 | 2.706 ± 0.024 | 2.409 ± 0.022
x2 = 0.0441 | 770.067 ± 0.23 | 766.622 ± 0.23 | 763.106 ± 0.24 | 1334.2 ± 1.2 | 1315.5 ± 1.2 | 1297.1 ± 1.2 | 2.867 ± 0.026 | 2.521 ± 0.023 | 2.231 ± 0.02
x2 = 0.1285 | 769.792 ± 0.23 | 766.198 ± 0.23 | 762.606 ± 0.23 | 1325.5 ± 1.2 | 1306.8 ± 1.2 | 1288.2 ± 1.2 | 2.654 ± 0.024 | 2.312 ± 0.021 | 2.034 ± 0.019
x2 = 0.1617 | 769.728 ± 0.22 | 766.093 ± 0.22 | 762.479 ± 0.22 | 1321.8 ± 1.2 | 1302.9 ± 1.2 | 1284.7 ± 1.2 | 2.601 ± 0.023 | 2.264 ± 0.021 | 1.989 ± 0.018
x2 = 0.2294 | 769.59 ± 0.21 | 765.938 ± 0.22 | 762.287 ± 0.22 | 1314.8 ± 1.2 | 1295.9 ± 1.2 | 1277.2 ± 1.2 | 2.531 ± 0.022 | 2.214 ± 0.02 | 1.944 ± 0.018
x2 = 0.2707 | 769.56 ± 0.21 | 765.896 ± 0.21 | 762.206 ± 0.21 | 1310.1 ± 1.1 | 1291.2 ± 1.1 | 1272.5 ± 1.1 | 2.504 ± 0.022 | 2.199 ± 0.02 | 1.928 ± 0.018
x2 = 0.332 | 769.565 ± 0.2 | 765.88 ± 0.21 | 762.156 ± 0.21 | 1303.1 ± 1.1 | 1284.1 ± 1.1 | 1265.6 ± 1.1 | 2.47 ± 0.021 | 2.176 ± 0.019 | 1.92 ± 0.018
x2 = 0.414 | 769.697 ± 0.2 | 765.976 ± 0.2 | 762.174 ± 0.2 | 1293.5 ± 1.1 | 1274.5 ± 1.1 | 1255.6 ± 1.1 | 2.43 ± 0.02 | 2.153 ± 0.019 | 1.904 ± 0.017
x2 = 0.5064 | 770.039 ± 0.19 | 766.23 ± 0.19 | 762.374 ± 0.19 | 1280.3 ± 1.1 | 1261.3 ± 1.1 | 1242.7 ± 1.1 | 2.36 ± 0.019 | 2.08 ± 0.018 | 1.843 ± 0.017
x2 = 0.6119 | 770.701 ± 0.18 | 766.793 ± 0.18 | 762.751 ± 0.18 | 1263.2 ± 1 | 1244.4 ± 1 | 1225.5 ± 1 | 2.242 ± 0.019 | 1.95 ± 0.017 | 1.719 ± 0.016
x2 = 0.7008 | 771.594 ± 0.17 | 767.564 ± 0.17 | 763.551 ± 0.17 | 1245.9 ± 0.98 | 1227.1 ± 1 | 1208.2 ± 1 | 2.123 ± 0.019 | 1.821 ± 0.017 | 1.599 ± 0.015
x2 = 0.762 | 772.47 ± 0.17 | 768.35 ± 0.17 | 764.298 ± 0.17 | 1231.6 ± 0.95 | 1212.9 ± 1 | 1194 ± 1 | 2.051 ± 0.019 | 1.723 ± 0.016 | 1.51 ± 0.014
x2 = 0.8419 | 774.082 ± 0.16 | 769.888 ± 0.16 | 765.761 ± 0.17 | 1208.4 ± 0.91 | 1189.9 ± 0.9 | 1171.2 ± 0.9 | 1.974 ± 0.02 | 1.628 ± 0.016 | 1.418 ± 0.013
x2 = 0.9188 | 776.284 ± 0.16 | 772.263 ± 0.16 | 768.061 ± 0.16 | 1180 ± 0.89 | 1161.6 ± 0.9 | 1143.6 ± 0.9 | 1.96 ± 0.02 | 1.608 ± 0.016 | 1.419 ± 0.013
x2 = 0.9498 | 777.915 ± 0.16 | 773.694 ± 0.16 | 769.382 ± 0.16 | 1166.2 ± 0.88 | 1148.3 ± 0.9 | 1130.3 ± 0.9 | 1.983 ± 0.019 | 1.647 ± 0.016 | 1.454 ± 0.013

CC(C)CCCC(C)CCCC(C)CCCCC(C)CCCC(C)CCCC(C)C (stereo not given) [2,6,10,15,19,23-hexamethyltetracosane] + CC(C)O
Conditions | mass density, 298.15 K [kg/m3] | mass density, 303.15 K [kg/m3] | mass density, 308.15 K [kg/m3] | speed of sound, 298.15 K [m/s] | speed of sound, 303.15 K [m/s] | speed of sound, 308.15 K [m/s] | viscosity, 298.15 K [mPa·s] | viscosity, 303.15 K [mPa·s] | viscosity, 308.15 K [mPa·s]
x2 = 0 | 805.122 ± 0.24 | 801.912 ± 0.24 | 798.709 ± 0.24 | 1381.9 ± 1.3 | 1364.1 ± 1.3 | 1346.5 ± 1.3 | 28.26 ± 0.31 | 22.09 ± 0.26 | 17.77 ± 0.21
x2 = 0.0621 | 804.504 ± 0.23 | 801.238 ± 0.23 | 797.982 ± 0.23 | 1377.4 ± 1.2 | 1359.1 ± 1.2 | 1341.4 ± 1.2 | 24.12 ± 0.28 | 18.75 ± 0.21 | 15.29 ± 0.16
x2 = 0.0949 | 804.196 ± 0.23 | 800.909 ± 0.23 | 797.625 ± 0.23 | 1374.9 ± 1.2 | 1356.8 ± 1.2 | 1338.9 ± 1.2 | 22.69 ± 0.25 | 17.69 ± 0.2 | 14.48 ± 0.16
x2 = 0.1438 | 803.771 ± 0.22 | 800.451 ± 0.22 | 797.133 ± 0.22 | 1371.4 ± 1.2 | 1353.3 ± 1.2 | 1335.5 ± 1.2 | 21.22 ± 0.23 | 16.63 ± 0.18 | 13.66 ± 0.14
x2 = 0.218 | 803.155 ± 0.21 | 799.796 ± 0.21 | 796.425 ± 0.21 | 1366 ± 1.2 | 1347.9 ± 1.2 | 1330 ± 1.2 | 19.65 ± 0.21 | 15.45 ± 0.17 | 12.74 ± 0.13
x2 = 0.2865 | 802.572 ± 0.2 | 799.185 ± 0.2 | 795.767 ± 0.2 | 1360.2 ± 1.2 | 1342.2 ± 1.1 | 1324.2 ± 1.1 | 18.5 ± 0.19 | 14.56 ± 0.16 | 12.03 ± 0.13
x2 = 0.3119 | 802.336 ± 0.2 | 798.955 ± 0.2 | 795.521 ± 0.2 | 1358.2 ± 1.1 | 1340 ± 1.1 | 1321.9 ± 1.1 | 18.11 ± 0.19 | 14.24 ± 0.15 | 11.76 ± 0.12
x2 = 0.4022 | 801.467 ± 0.19 | 798.03 ± 0.19 | 794.563 ± 0.19 | 1349.5 ± 1.1 | 1331.3 ± 1.1 | 1313.3 ± 1.1 | 16.68 ± 0.17 | 13.05 ± 0.14 | 10.84 ± 0.11
x2 = 0.5142 | 800.109 ± 0.18 | 796.619 ± 0.18 | 793.069 ± 0.18 | 1336.4 ± 1.1 | 1318.1 ± 1.1 | 1299.9 ± 1.1 | 14.34 ± 0.13 | 11.37 ± 0.12 | 9.424 ± 0.1
x2 = 0.5952 | 798.83 ± 0.17 | 795.275 ± 0.17 | 791.676 ± 0.18 | 1324.5 ± 1 | 1306.4 ± 1 | 1288.1 ± 1 | 11.77 ± 0.12 | 9.455 ± 0.095 | 7.904 ± 0.078
